Test results as given in publication PMC11620503 (Antimicrobial Agents and Chemotherapy, 2024).
In brackets after ≈: the same amount, converted by molar mass. Where two headings read alike, the source gives them in different places.

How the values were obtained:
Assay in all cases: MIC, broth microdilution
[1] = system: 207 Enterobacterales including carbapenem-resistant isolates; format: cell-based
[2] = system: 55 isolates of A. baumannii; format: cell-based, Acinetobacter baumannii; settings: Acinetobacter baumannii (55)
[3] = system: MEM-, imipenem/relebactam-, and ceftolozane/tazobactam-nonsusceptible P. aeruginosa; format: cell-based, Pseudomonas aeruginosa; settings: for CLSI MIC interpretation I (intermediate) / CLSI MIC interpretation R (resistant) / CLSI MIC interpretation S (susceptible): CLSI breakpoints, marked c: breakpoints for β-lactam alone; for MIC Range / MIC50 / MIC90: fixed concentration (μg/mL) in label; for MIC50 / MIC90: Pseudomonas aeruginosa; for MIC50: read-out: MIC50; for MIC90: read-out: MIC90
[4] = system: E. coli CDC-119 (NDM-1), PBP3 mutations; format: cell-based; settings: Escherichia coli
[5] = system: E. coli CDC-137 (NDM-6), PBP3 mutations; format: cell-based; settings: Escherichia coli, fixed BLI concentration (μg/mL) in parentheses in label
[6] = system: MEM-nonsusceptible Enterobacterales with metallo-carbapenemases; format: cell-based; settings: MEM-nonsusceptible Enterobacterales with metallo-carbapenemases (55), cefiderocol 54 isolates
[7] = All Enterobacterales (207), cefiderocol 205 isolates, CLSI breakpoints, marked c: breakpoints for β-lactam alone, tigecycline: FDA breakpoints
[8] = CLSI breakpoints, marked c: breakpoints for β-lactam alone
[9] = fixed concentration (μg/mL) in label, read-out: MIC50
[10] = fixed concentration (μg/mL) in label, read-out: MIC90
[11] = Ceftolozane/tazobactam-nonsusceptible Pseudomonas aeruginosa (45)
[12] = Imipenem/relebactam-nonsusceptible Pseudomonas aeruginosa (43)
[13] = MEM-nonsusceptible Pseudomonas aeruginosa (76)
[14] = CLSI breakpoints, marked c: breakpoints for β-lactam alone, tigecycline: FDA breakpoints

## CC(C)(O/N=C(\C(=O)N[C@@H]1C(=O)N2C(C(=O)[O-])=C(C[N+]3(CCNC(=O)c4ccc(O)c(O)c4Cl)CCCC3)CS[C@H]12)c1csc(N)n1)C(=O)O [FDC, cefiderocol]
[1]; [7]
  CLSI MIC interpretation I (intermediate): 2%
  CLSI MIC interpretation R (resistant): 0.5%
  CLSI MIC interpretation S (susceptible): 97.6%
[1]; read-out: MIC50
  MIC50: 0.5 µg/mL (≈ 0.665 µM)
[1]; read-out: MIC90
  MIC90: 2 µg/mL (≈ 2.66 µM)
[2]; [8]
  CLSI MIC interpretation I (intermediate): 3.6%
  CLSI MIC interpretation R (resistant): 1.8%
  CLSI MIC interpretation S (susceptible): 94.5%
[2]; fixed concentration (μg/mL) in label
  MIC Range: ≤0.06 to 16 µg/mL
[2]; [9]
  MIC50: 0.5 µg/mL (≈ 0.665 µM)
[2]; [10]
  MIC90: 4 µg/mL (≈ 5.32 µM)
[3]; [11]
  CLSI MIC interpretation I (intermediate): 0%
  CLSI MIC interpretation R (resistant): 0%
  CLSI MIC interpretation S (susceptible): 100%
  MIC Range: 0.25 to 4 µg/mL
  MIC50: 0.5 µg/mL
  MIC90: 2 µg/mL
[3]; [12]
  CLSI MIC interpretation I (intermediate): 0%
  CLSI MIC interpretation R (resistant): 0%
  CLSI MIC interpretation S (susceptible): 100%
  MIC Range: 0.12 to 4 µg/mL
  MIC50: 0.5 µg/mL
  MIC90: 2 µg/mL
[3]; [13]
  CLSI MIC interpretation I (intermediate): 0%
  CLSI MIC interpretation R (resistant): 0%
  CLSI MIC interpretation S (susceptible): 100%
  MIC Range: ≤0.06 to 4 µg/mL
  MIC50: 0.5 µg/mL (≈ 0.665 µM)
  MIC90: 2 µg/mL (≈ 2.66 µM)
[4]
  MIC: 0.5 µg/mL (≈ 0.665 µM)
[5]
  MIC: 2 µg/mL (≈ 2.66 µM)
[6]; [14]
  CLSI MIC interpretation I (intermediate): 7.4%
  CLSI MIC interpretation R (resistant): 1.9%
  CLSI MIC interpretation S (susceptible): 90.7%
[6]; [9]
  MIC50: 1 µg/mL (≈ 1.33 µM)
[6]; [10]
  MIC90: 4 µg/mL (≈ 5.32 µM)
